# In patent publication US20150141248A1, “ANTIFUNGAL COMPOSITIONS” (DSM IP ASSETS B.V., priority 2011, published 2015):
# How the values were obtained:
# [1] = test system: Penicillium italicum; assay: Treatment of wounded mandarins inoculated with Penicillium italicum (mould growth); type: in vivo
# Protocol: Ten fresh, organic mandarins were used per treatment. The peel of each mandarin was wounded once using a cork borer according to the method described by de Lapeyre de Bellaire and Dubois (1987). Subsequently, each wound was inoculated with 10 μl of a Penicillium italicum suspension containing 1×10^4 of spores/ml. […] The pH of the composition was 4.0. […]
# [2] = test system: Fusarium proliferatum; assay: In vitro antifungal activity, 96-well microtiter plates; type: cell-based; settings: in vitro 25° C.; 10 days; natamycin 2.5 ppm, prothioconazole 0.5 ppm or both
# Protocol: Subsequently, 100 μl of a Botrytis cinerea suspension prepared in PCB medium was used to inoculated each well with 2.5×10^3 spores/ml.
# , the in vitro antifungal activity (%) of the individual active ingredients was assessed by calculating the reduction in mould growth observed in the presence of the active ingredient in comparison to the mould growth observed in the absence of the active ingredient. The expected antifungal activity (E in %) of the active ingredient combination was calculated according to the Colby equation (Colby, 1967): […]
# The experiment was conducted as described in Example 13, except for the fact that the following compositions were tested:
# Furthermore, Fusarium proliferatum was used for inoculation. The antifungal activity (in %) of the individual and combined active ingredients was determined according to the method described in Example 13.
# [3] = test system: Botrytis cinerea; assay: as above; type: cell-based; settings: in vitro 25° C., natamycin 1.25 ppm
# Protocol: The following compositions were tested: […] Subsequently, 100 μl of a Botrytis cinerea suspension prepared in PCB medium was used to inoculated each well with 2.5×10^3 spores/ml. […] The expected antifungal activity (E in %) of the active ingredient combination was calculated according to the Colby equation (Colby, 1967): […] wherein X and Y are the observed antifungal activities (in %) of the individual active ingredients X and Y, respectively.
# [4] = test system: Botrytis cinerea; assay: Treatment of wounded strawberries inoculated with Botrytis cinerea (mould growth); type: in vivo; settings: 250 ppm natamycin; for Number of moulded wounds/total number of 12 wounds (title: Number of moulded strawberries): strawberries 20° C.; for Observed antifungal activity O: strawberries
# Protocol: Twelve fresh, organic strawberries were used per treatment. Each strawberry was wounded with a 0.5 mm long cut and each wound was inoculated with 10 μl of a Botrytis cinerea suspension containing 1×10^5 of spores/ml. […] The antifungal compositions also comprised 1.00% (w/w) methylhydroxyethylcellulose (MHEC), 0.40% (w/w) xanthan gum, 0.20% (w/w) anti-foaming agent, 0.30% (w/w) citric acid, 0.39% (w/w) lactic acid and 0.11% (w/w) potassium sorbate. The pH of the composition was 4.0. A composition without natamycin or prothioconazole was used as control. The treated strawberries were incubated in a closed box in the dark at 20° C. for 3 days.
# After 2 and 3 days of incubation, the mould growth on the strawberries was assessed in a twofold manner: (i) the number of moulded strawberries per total of 12 strawberries was counted; and (ii) the antifungal activity (in %) of the individual and combined active ingredients was determined by calculating the reduction in mould growth observed on the strawberries treated with the antifungal composition in comparison to the mould growth on the strawberries treated with the control composition according to the Colby method described in Example 4 (Colby, 1967).
# [5] = test system: Fusarium proliferatum; assay: Treatment of wounded bananas inoculated with Fusarium proliferatum (mould growth); type: in vivo; settings: bananas 20° C.
# Protocol: Four organic, unripe (green) bananas were used per treatment. The peel of each banana was wounded thrice using a cork borer according to the method described by de Lapeyre de Bellaire and Dubois (1987). Subsequently, each wound was inoculated with 15 μl of a Fusarium proliferatum suspension containing 1×10^5 of spores/ml. […] In addition, the antifungal compositions comprised 1.00% (w/w) methylhydroxyethylcellulose (MHEC), 0.40% (w/w) xanthan gum, 0.20% (w/w) anti-foaming agent, 0.30% (w/w) citric acid, 0.39% (w/w) lactic acid and 0.11% (w/w) potassium sorbate. The pH of the composition was 4.0. […] The treated, unripe bananas were incubated in a closed box in the dark at 20° C. and a relative air humidity of 95%, which was obtained in the presence of a saturated Na2HPO4 aqueous solution. During the first 20 days of incubation, a ripe (yellow) banana was included in the closed box to elevate the ethylene gas level and thus induce ripening of the treated, unripe bananas. […]
# The expected antifungal activity (E in %) of the combined antifungal composition comprising both active ingredients was calculated according to the Colby equation (Colby, 1967): […]
# wherein X and Y are the observed antifungal activities (in %) of the individual active ingredients X and Y, respectively. If the observed antifungal activity (O in %) of the combination exceeds the expected antifungal activity (E in %) of the combination and the synergy factor O/E is thus >1.0, the combined application of the active ingredients leads to a synergistic antifungal effect.
compound,measurement,setting,value
"OC(Cc1ccccc1Cl)(Cn1nc[nH]c1=S)C1(Cl)CC1 (stereo not shown) [Prothioconazole, prothioconazole]",Observed antifungal activity O,"[1]; 250 ppm natamycin, 150 ppm prothioconazole or both, 13 days",86%
same,Observed antifungal activity O,"[1]; 250 ppm natamycin, 150 ppm prothioconazole or both, 16 days",82%
same,Observed antifungal activity O,"[1]; 250 ppm natamycin, 150 ppm prothioconazole or both, 21 days",71%
same,Observed antifungal activity O,"[1]; 250 ppm natamycin, 150 ppm prothioconazole or both, 26 days",63%
same,Observed antifungal activity O,"[1]; 250 ppm natamycin, 150 ppm prothioconazole or both, 29 days",40%
same,Observed antifungal activity O,"[1]; 250 ppm natamycin, 150 ppm prothioconazole or both, 34 days",27%
same,Observed antifungal activity O,"[1]; 500 ppm natamycin, 600 ppm prothioconazole or both, 25 days",91%
same,Observed antifungal activity O,"[1]; 500 ppm natamycin, 600 ppm prothioconazole or both, 28 days",83%
same,Observed antifungal activity O,"[1]; 500 ppm natamycin, 600 ppm prothioconazole or both, 31 days",71%
same,Observed antifungal activity O,"[1]; 500 ppm natamycin, 600 ppm prothioconazole or both, 34 days",63%
same,Observed antifungal activity O,[2],50%
same,Observed antifungal activity O,"[3]; 5 days, propiconazole 0.50 ppm, prothioconazole 0.13 ppm, or natamycin 1.25 ppm with either",0%
same,Observed antifungal activity O,"[3]; 10 days, prothioconazole 0.13 ppm or both",50%
same,Number of moulded wounds/total number of 12 wounds (title: Number of moulded strawberries),"[4]; 500 ppm prothioconazole or both, Day 2",12/12
same,Number of moulded wounds/total number of 12 wounds (title: Number of moulded strawberries),"[4]; 500 ppm prothioconazole or both, Day 2, listed as prothioconazole",12
same,Number of moulded wounds/total number of 12 wounds (title: Number of moulded strawberries),"[4]; 500 ppm prothioconazole or both, Day 3",12/12
same,Number of moulded wounds/total number of 12 wounds (title: Number of moulded strawberries),"[4]; 500 ppm prothioconazole or both, Day 3, listed as prothioconazole",12
same,Observed antifungal activity O,"[4]; 500 ppm prothioconazole (row prints 50 ppm) or both, 3 days",21%
same,Observed antifungal activity O,"[4]; 500 ppm prothioconazole or both, 2 days",14%
same,Number of moulded wounds/total number of 12 wounds,"[5]; 250 ppm natamycin, 100 ppm prothioconazole or both, Day 27",11/12
same,Number of moulded wounds/total number of 12 wounds,"[5]; 250 ppm natamycin, 100 ppm prothioconazole or both, Day 27, listed as prothioconazole",11
same,Number of moulded wounds/total number of 12 wounds,"[5]; 250 ppm natamycin, 100 ppm prothioconazole or both, Day 28 and 29",12/12
same,Number of moulded wounds/total number of 12 wounds,"[5]; 250 ppm natamycin, 100 ppm prothioconazole or both, Day 28 and 29, listed as prothioconazole",12
same,Number of moulded wounds/total number of 12 wounds,"[5]; 500 ppm natamycin, 250 ppm prothioconazole or both, Day 27, 28 and 29",10/12
same,Number of moulded wounds/total number of 12 wounds,"[5]; 500 ppm natamycin, 250 ppm prothioconazole or both, Day 27, 28 and 29, listed as prothioconazole",10
